Literature values as cited in patent US20080103103A1, “Reagents and methods to treat ocular diseases and infection” (priority 2006, published 2008).

Assays:
HSV = HSV early onset
adenovirus [1] = system: adenovirus
adenovirus [2] = system: adenovirus; remark: listed apart in the source
adenovirus [3] = conditions: 0.5%
adenovirus [4] = conditions: 0.2%
adenovirus [5] = conditions: 3%, ocular application

SMILES: Nc1nc2c(ncn2COCCO)c(=O)[nH]1 [Acyclovir]
- effectiveness against HSV (HSV): effective
- effectiveness against adenovirus (adenovirus [1]): not adenovirus

SMILES: O=C(O[C@@H]1Cc2c(O)cc(O)cc2O[C@@H]1c1cc(O)c(O)c(O)c1)c1cc(O)c(O)c(O)c1 [EGCG, (2R,3R)-2-(3,4,5-Trihydroxyphenyl)-3,4-dihydro-1(2H)-benzopyran-3,5,7-triol 3-(3,4,5-trihydroxybenzoate)]
- activity against adenovirus in vitro (viral load) (adenovirus [2]; in vitro): greatly reducing the viral load
- concentration effective for in vitro cultures (adenovirus [2]; in vitro cultures, adenovirus): 0.005%

SMILES: Nc1ccn(C[C@@H](CO)OCP(=O)(O)O)c(=O)n1 [cidofovir]
- result in animal studies (adenovirus [3]): some positive results
- result in clinical trials (adenovirus [4]): failed

SMILES: CC(=O)OCC(CCn1cnc2cnc(N)nc21)COC(C)=O [famciclovir]
- effectiveness against HSV (HSV): effective
- effectiveness against adenovirus (adenovirus [1]): not adenovirus

SMILES: Nc1nc(O)c2ncn(COC(CO)CO)c2n1 [gancicolovir]
- activity against adenovirus (adenovirus [5]): very minor activity
